{"source": "patent US11274131B2", "about": "“IgM-mediated receptor clustering and cell modulation” (MAYO FOUNDATION FOR MEDICAL EDUCATION AND RESEARCH, priority 2007, dated 2022)", "key": {"[1]": {"system": "OT-II CD4+CD25+ Treg cells", "assay": "Conversion of OT-II Tregs to Th17 phenotype by antibody-treated DCs", "format": "cell-based, mouse", "description": "FIG. 16 is a series of plots showing conversion of OT-II CD4 Treg cells to a Th17 phenotype by co-incubation with DCs expressing the Kb-peptide constructs treated with MTabs. OT-II CD4+CD25+ splenic Tregs were isolated by MACS and added 1:1 to DCs pulsed with Ovalbumin and treated with hIgM12, hIgM22, or 28-13-3. After 48 hours, the T cells were harvested, stained with CD4, and internally stained with FoxP3 PE and IL-17 APC. Expression was assayed by flow cytometry, and cells were gated on CD4.\nThis was measured by loss of FoxP3 expression and gain of IL-17 expression, corresponding to loss of a repressive phenotype and gain of an effector phenotype. Studies were conducted to compare the ability of wild type DCs or B7DC−/− B7DC reconstituted DCs to B7DC−/− transduced with the Kb-peptide constructs to convert Tregs to Th17 polarized T cells. DCs were pulsed with 10 ug/mL ovalbumin and treated with 10 ug/mL of either hIgM12, hIgM22, or 28-13-3, 24 hours prior to addition of T cells. Splenic OT-II Tregs were isolated by MACs and added to DC cultures at a 1:1 ratio. After 48 hours of co-incubation, T cells were harvested, stained with CD4 PerCP, and permeabilized and stained with FoxP3 PE and IL-17 APC. Samples were run by flow cytometry and cells were gated by high CD4 expression. Conversion was measured by loss of FoxP3 expression and gain of IL-17 expression."}, "[2]": {"system": "mouse bone marrow-derived DC", "assay": "Immunoblot of DAP12 and Syk phosphorylation in mouse DC", "format": "cell-based", "description": "FIG. 6A to 6C is a series of histograms and pictures showing that TREM-2 is recruited into the MTAb-induced cap on mouse DC and expression of TREM-2 is important for MTAb-induced phosphorylation of the adapter DAP-12 and the protein kinase Syk. FIG. 6A: six day cultures of bone marrow-derived mouse DC were differentiated in GM-CSF and IL-4 were tagged with antibodies specific for the class II molecule IA^b (25-9-17-APC) and for TREM-2 (237916-PE) for 15 minutes prior to stimulation with the MTAb B7-DC XAb (open histograms) or with isotype control antibody sHIgM39 (filled histograms). Cells were fixed in 0.1% paraformaldehyde prior to analysis by flow cytometry. FRET between PE and APC was assessed collecting light emitted by APC following excitation of PE with a 488 nm laser. Expression of TREM-2 on the cells was assessed by staining with 237916-PE antibody alone (open histogram) or isotype control antibody (closed histogram, bottom-right panel). For FIG. 6B, mouse bone marrow-derived DC were transduced on day 2 of culture with a retrovirus expressing an […] specific for TREM-2 or a control virus containing a scrambled sequence. On day 5 of culture, the transduced cells were not treated (0′ time), activated with the isotype control antibody sHIgM39, or activated with B7-DC XAb for 5 minutes. DAP12 was immunoprecipitated from cell lysates with antibody MC457, resolved by electrophoresis, and the blotted filters were probed with the phosphotyrosine-specific antibody 4G10. FIG. 6C: the lysates used in the experiments from FIG. 6B were immunoprecipitated with the Syk-specific antibody (4D10) and analyzed by western blot for the presence of phosphotyrosine.\nFor transducing DC with the virus, 1 ml of supernatant containing the scrambled virus or shDNA containing dominant negative TREM-2 virus was mixed with 2 ml of RPMI. Cytokines were added to a final concentration of 10 ng/ml murine GM-CSF and 1 ng/ml murine IL-4 at day 2 of DC culture. […]\nIn experiments involving assessment of the phosphorylation status of various protein kinases using whole cell lysate, dendritic cells of mouse or human origin or Jurkat cells were stimulated at the indicated times with control antibody or B7-DC XAb, and were lysed on ice for 10 minutes in 1 ml buffer containing 20 mM Tris-HCl, 40 mM NaCl, 5 mM EDTA, 50 mM NaF, 30 mM Na4P2O7, 0.1% BSA, 1 mM Na3VO4, 1 mM PMSF, 5 μg/ml aprotinin, 10 μg/ml leupeptin, and 1% Triton X-100. […] Tyrosine-phosphorylated proteins were detected using the anti-phosphotyrosine specific antibody, 4G10, followed by goat anti-mouse IgG coupled to Horse Radish Peroxidase (Santa Cruz Biotechnology) and the SuperSignal detection system (Pierce Biotechnology, Rockford, Ill.). […]"}, "[3]": {"system": "CpG-treated DCs", "assay": "Antigen persistence in CpG-treated DCs", "format": "cell-based, mouse", "details": "CpG-treated wild type DCs or B7DC−/− DCs", "description": "FIG. 15 is a series of histograms showing restoration of antigen persistence in CpG-treated DCs expressing Kb-peptide constructs upon treatment with the appropriate MTab. DCs were untreated (blue) or treated with 10 ug/mL CpG (red) 48 hours prior to harvesting. They were then pulsed with Ovalbumin-Alexa647 and either hIgM12, hIgM22, or 28-13-3, and Ovalbumin-647 levels were measured in CD11c positive cells by flow cytometry.\nThe ability of Kb-peptide expressing DCs to alter antigen processing was then tested. Untreated DCs take up fluorochrome-labeled protein, and the fluorochrome labeled protein persists over 24 hours, as measured by flow cytometry. DCs treated with a Toll receptor agonist (LPS, CpG, or Polyl:C) 24 hours prior to addition of protein lose their ability to take up and maintain this antigen. […] The ability of B7DC−/− DCs transduced with the Kb-peptide constructs was compared to wild type DCs or knockouts transduced with B7DC."}}}
{"substance": "B7-DC XAb: human monoclonal IgM from a Waldenstrom's macroglobulinemia patient that binds and cross-links B7-DC on DC", "values": [{"measurement": "conversion of Tregs to Th17 polarized cells", "setting": "[1]; knockout DCs expressing Kb-12p9A", "result": "responded"}, {"measurement": "conversion of Tregs to Th17 polarized cells", "setting": "[1]; wild type DCs and B7DC reconstituted knockouts, 10 ug/mL", "result": "converted Tregs to Th17 polarized cells"}, {"measurement": "phosphorylation of DAP12 and Syk", "setting": "[2]; DC transduced with scrambled shDNA", "result": "proceeded in the same manner"}, {"measurement": "phosphorylation of DAP12 and Syk", "setting": "[2]; DC transduced with shDNA for TREM-2", "result": "absence of phosphorylation of DAP12 and Syk"}, {"measurement": "phosphorylation of DAP12 and Syk", "setting": "[2]; TREM-2 KO DC", "result": "not induced"}, {"measurement": "phosphorylation of DAP12 and Syk", "setting": "[2]; wild type DC", "result": "readily induced"}, {"measurement": "antigen persistence", "setting": "[3]", "result": "restored to untreated levels"}]}
